Test results taken from US3989466.

Assays:
[1] = not told
[2] = not told for nicotinamide; caffeine D in same system by direct partitioning in a separatory funnel with UV absorbance

SMILES	partition coefficient (concentration ratio) [1]	partition coefficient (concentration ratio) [2]
Oc1ccc(N=Nc2ccccc2)cc1	ca. 0.50 concentration ratio (mg/ml per mg/ml)	
CC1(C)Nc2cccc3c(N=Nc4ccc(N=Nc5ccccc5)c5ccccc45)ccc(c23)N1	ca. 2.0 concentration ratio (mg/ml per mg/ml)	
NC(=O)c1cccnc1		0.19 concentration ratio (mg/ml per mg/ml)
